One experiment deals with H1299 and A549 cells. The experiment in a line: Annexin V-FITC/PI apoptosis by flow cytometry with DNA-PKcs siRNA knockdown. The class given is cell-based. The conditions noted are these: A549 (P53 wild-type) versus H1299 (P53-deficient); 1 μM versus 10 μM, 16 h. As for the experimental part: In this example, tumor cells (including H1299 and A549 cells) were divided into eight treatment groups. In the first four groups, cells were transfected with control siRNA, and in the last four groups, cells were transfected with siRNA that specifically knocked down DNA-PKcs. The siRNA sequence of DNA-PKcs is: forward 5′-[…]-3′ (SEQ ID NO: 5), reverse 5′-[…]-3′ (SEQ ID NO: 6). The siRNA transfection method was performed according to the instructions of the transfection reagent Lipofectamine 2000. Then, in the eight groups, the cells were treated with drugs. […] Cells were collected and operations were performed according to the instructions of Annexin V-FITC/PI Apoptosis Detection Kit. Apoptosis was detected by flow cytometry. A549 cells were P53 wild-type cells, and H1299 cells were P53-deficient cells.

In experiment [1] the test system is DNA-PKcs signaling pathway. Description: Immunoblotting of DNA-PKcs signaling pathway activation induced by chemotherapeutic agent. It is filed as cell-based. Particulars: H1299 and A549 cells; for Level of the DNA-PKcs signaling pathway (p-DNA-PKcs (S2056), p-AKT (S473), p-P53 (S15)): single agent 1 h (Etoposide 10 μM, Endostatin 10 μg/ml, NU7026 10 μM); for Activation of the DNA-PKcs signaling pathway by Etoposide (p-DNA-PKcs (S2056), p-AKT (S473)): 10 μg/ml added 1 h before Etoposide 10 μM. The source says:
Tumor cells (including non-small cell lung cancer H1299 and A549 cells) were divided into six treatment groups.
Tumor cells (including H1299 and A549 cells) were divided into six treatment groups.
In general terms: A western blot detects proteins with antibodies after separation by electrophoresis.

For a further experiment, the system named is H1299 mouse tumor model. The experiment in a line: Survival of H1299 tumor-bearing mice. It is filed as in vivo. The conditions noted are these: administration as in Example 12, stopped after 25 days. On the procedure: (§1) Tumor-bearing nude mice were randomly divided into four groups with 6 to 8 animals for each group, and different drug treatments were performed. […] Tumor volume was measured every other day. 2 to 4 weeks after administration, the mice were sacrificed and the tumor tissue was removed for further use.
(§2) H1299 and A549 cells were cultured in a vigorous and proliferative state, and tumor collection, grouping, and administration methods were the same as in Example 12. The administration was stopped after 25 days, and the survival of the mice was recorded daily, and the survival curve of the mice was plotted.

The test system of another experiment is A375 cells. Description: CCK8 cell activity, melanoma A375. It is filed as cell-based. The conditions noted are these: A375 (P53 wild type); Etoposide; operation process as in Example 5. On the procedure: (§3) First, a lentivirus kit (purchased from Shanghai Genepharma) was used to construct a P53 stably overexpressing H1299 cell line (H1299-P53) and a P53 stably knockdown A549 cell line […]. The P53 sequence targeted by the shRNA used to knock down P53 in A549 cells was 5′-[…]-3′ (SEQ ID NO: 4). Virus transfection and the construction of stable cell lines were performed according to the kit instructions. […] After treatment for 12 hours, the drug-containing medium was replaced with a normal medium and the cells were further cultured for 72 hours. Cell activity was measured according to the instructions of the CCK8 kit (Dojindo, Tokyo, Japan).
This example used two cell lines of another tumor type (melanoma), the MDA-MB-435S (P53 mutant) and A375 (P53 wild type) cell lines, to verify the regulatory function of Endostatin on the chemotherapeutic sensitivity of other types of tumor cells with different P53 status. Operation process was the same as in Example 5.

The subject of experiment [2] is mRNA levels of BAX, NOXA, PUMA, and P21. Description: Real-time PCR of pro-apoptotic molecules, tumor cells with normal P53 function. The class given is cell-based. The conditions noted are these: H1299-P53, A549-NC; Etoposide 1 μM, 16 h. On the procedure:
After the cells were treated as described above, the total RNA of the cells was extracted, and the relative changes in mRNA levels of BAX, NOXA, PUMA, and P21 in the cells were detected by real-time PCR.

In the next experiment the test system is H1299-NC tumor. The experiment in a line: Subcutaneous tumor growth in nude mice, H1299-NC. The class given is in vivo. The conditions noted are these: Day 19, compared with control group, Endostatin 20 mg/kg i.p. once a day, Etoposide 2 mg/kg i.p. once every two days. As for the experimental part:
as §1

The subject of the next experiment is A549-shP53 tumor. The experiment in a line: Subcutaneous tumor growth in nude mice, A549-shP53. It is filed as in vivo. The conditions noted are these: A549-shP53, Day 27; compared with control group; Endostatin 20 mg/kg i.p. once a day, Etoposide 2 mg/kg i.p. once every two days. On the procedure:
as §1

A further experiment has as its system A549-NC tumor. Description: Subcutaneous tumor growth in nude mice, A549-NC. It is filed as in vivo. The conditions noted are these: Day 27, compared with control group, Endostatin 20 mg/kg i.p. once a day, Etoposide 2 mg/kg i.p. once every two days. On the procedure:
as §1

For experiment [3], the system named is A549 tumor-bearing mice (normal P53 function). The experiment in a line: Survival of A549 tumor-bearing mice. It is filed as in vivo. Particulars: A549, normal P53 function (FIG. 13B); compared with control group; administration as in Example 12, stopped after 25 days. On the procedure:
as §1, §2

For experiment [4], the system named is tumor cells with normal P53 function (H1299-P53, A549-NC). Description: Cell colony formation, tumor cells with normal P53 function. It is filed as cell-based. Particulars: Etoposide 1 μM, 16 h; colonies after 14 days. On the procedure:
After the treatment, the cells were digested with trypsin, counted, and re-plated in a six-well plate with 1000 cells per well. The cells were cultured in a normal medium for 14 days to form cell colonies.

The test system is the same in experiment [5]. Description: PI staining apoptosis by flow cytometry, tumor cells with normal P53 function. The conditions noted are these: Etoposide 1 μM, 16 h. The class given is cell-based. On the procedure: The apoptotic cells and adherent cells floating in the culture medium were collected, and the cells were suspended in 500 μl PBS containing 0.05 mg/ml propidium iodide (PI), stained for 15 min at room temperature in dark, and detected by flow cytometry (BD FACS Calibur). PI-positive cells represent apoptotic cells.
(In general: Flow cytometry measures light scatter and fluorescence of single cells or particles in a stream.)

In experiment [6] the test system is tumor cells with normal P53 function (H1299-P53 and A549-NC). Description: CCK8 cell activity, tumor cells with normal P53 function. The class given is cell-based. On the procedure:
as §3
In this example, another chemical drug, Doxorubicin, was used to verify that Endostatin can enhance the sensitivity of P53-deficient tumor cells to chemotherapy. Operation process was the same as in Example 5.

For experiment [7], the system named is PCNA and DNA-PKcs protein in H1299-P53 and A549-NC tumor tissues. The experiment in a line: Immunofluorescence of PCNA and DNA-PKcs in tumor tissue, mouse tumor model with normal P53 function. The class given is in vivo, nude mice. Particulars: H1299-P53 and A549-NC tumors of Example 12; quantitative immunofluorescence. As for the experimental part: as §1
(§4) The tumor tissue removed in Example 12 was fixed and embedded, and then sectioned. PCNA (a marker molecule indicating the vigorous proliferation status of tumor cells) and DNA-PKcs protein in tumor tissues were stained by immunofluorescence technique, and were observed and imaged with a laser confocal microscope (Nikon A1). The experimental results are shown in FIG. 14A-14D, in which blue represents the nucleus of DAPI-stained cells, green represents the DNA-PKcs protein, and red represents the PCNA protein. Taking the H1299-NC tumor tissue shown in FIG. 14A as an example, the first column on the left represents DNA-PKcs single staining, and the green area represents the DNA-PKcs protein expression level. The second column on the left represents the results of DNA-PKcs (green) merged with nucleus (blue), and the overlapping part is shown in cyan. The third column on the left represents PCNA single staining, and the red area represents the PCNA protein expression level, indicating the strength of tumor cell proliferation. […]

The test system of experiment [8] is PCNA and DNA-PKcs protein in H1299-NC and A549-shP53 tumor tissues. Description: Immunofluorescence of PCNA and DNA-PKcs in tumor tissue, P53-deficient mouse tumor model. Particulars: H1299-NC and A549-shP53 tumors of Example 12; quantitative immunofluorescence. The class given is in vivo, nude mice. On the procedure:
as §1, §4

Another experiment deals with H1299-P53 tumor. The experiment in a line: Subcutaneous tumor growth in nude mice, H1299-P53. Particulars: H1299-P53, Day 19; compared with control group; Endostatin 20 mg/kg i.p. once a day, Etoposide 2 mg/kg i.p. once every two days. It is filed as in vivo. As for the experimental part: as §1
The test system of experiment [9] is DNA-PKcs, PARP, γH2AX and Caspase-3 signaling pathways. Description: Immunoblotting of DNA damage and apoptotic pathway, P53-deficient tumor cells. It is filed as cell-based. The conditions noted are these: H1299-NC, A549-shP53; Endostatin 10 μg/ml, Etoposide 10 μM 16 h, z-DEVD-fmk 10 μM; Endostatin and z-DEVD-fmk added 1 h before Etoposide.
Text: In this example, tumor cells (H1299-NC, H1299-P53, A549-NC, A549-shP53) were divided into six treatment groups.

The source of these data is patent publication US20240165140A1, “MEDICATION FOR INHIBITING DNA-PKCS” (TSINGHUA UNIVERSITY, priority 2017, published 2024).

Consider `COc1cc([C@@H]2c3cc4c(cc3[C@@H](O[C@@H]3O[C@@H]5CO[C@@H](C)O[C@H]5[C@H](O)[C@H]3O)[C@H]3COC(=O)[C@H]23)OCO4)cc(OC)c1O` [Etoposide, reference compound], for which the “Sensitivity of cells to the chemotherapeutic agent (apoptosis)” value in the experiment with H1299 and A549 cells is reported as “A549 cells were more sensitive to the chemotherapeutic agent”. Moreover, in [1] (Example 15, Etoposide 10 μM, 1 h, compared with control group), the “Level of the DNA-PKcs signaling pathway (p-DNA-PKcs (S2056), p-AKT (S473))” value was “activated the level of the DNA-PKcs signaling pathway in H1299 and A549 cells”. The “Level of the DNA-PKcs signaling pathway (p-DNA-PKcs (S2056), p-AKT (S473), p-P53 (S15))” value in experiment [1] (compared with control group) is on record as “activated the level of the DNA-PKcs signaling pathway”. Also, the “median survival time longer than that of the control group” value with H1299 mouse tumor model was determined as 30.3%. The “Activity of tumor cells” value in the experiment on A375 cells was “could significantly inhibit the activity of tumor cells”; in experiment [6] (Etoposide 0, 0.1, 1, 10 μM, 12 hours treatment, 72 hours further culture), “could significantly inhibit the activity of tumor cells”. The “mRNA levels of pro-apoptotic molecules BAX, NOXA, PUMA, P21” value in experiment [2] was “could significantly up-regulate the above pro-apoptotic molecules”. In addition, the tumor suppression rate in the experiment on H1299-NC tumor is listed as 28.0%; in the experiment with A549-shP53 tumor, 39.3%; in the experiment with A549-NC tumor it was 34.0%; in the experiment with H1299-P53 tumor it was 30.0%. The “Survival time of mice” value in [3] was “could prolong the survival time of the mice to some extent”. For the same molecule, in experiment [4], the “Colony-forming ability of tumor cells” value was “could significantly inhibit the colony-forming ability of tumor cells”. The “Apoptosis of tumor cells (PI-positive cells)” value in experiment [5] is “could significantly promote the apoptosis of tumor cells”. For the same molecule, the “Tumor cell proliferation (PCNA) and protein level of DNA-PKcs in tumor tissue” value is “could reduce the proliferation of tumor cells and reduce the protein level of DNA-PKcs” in experiment [7]; “can attenuate tumor cell proliferation to a certain extent and reduce the protein level of DNA-PKcs” in experiment [8].
As to `O=c1cc(N2CCOCC2)oc2c1ccc1ccccc12` [NU7026, reference compound], in experiment [1] (compared with control group), the “Level of the DNA-PKcs signaling pathway (p-DNA-PKcs (S2056), p-AKT (S473), p-P53 (S15))” value is given as “did not affect the level of the DNA-PKcs signaling pathway”.
In the case of `COc1cccc2c1C(=O)c1c(O)c3c(c(O)c1C2=O)C[C@@](O)(C(=O)CO)C[C@@H]3O[C@H]1C[C@H](N)[C@H](O)[C@H](C)O1` [Doxorubicin, reference compound], the “Activity of tumor cells” value in experiment [6] (Doxorubicin, operation process as in Example 5) was “could significantly inhibit the activity of tumor cells”.
Turning to z-DEVD-fmk [reference compound], the “DNA-PKcs, PARP, γH2AX and Caspase-3 signaling pathway levels” value in [9] is “could reverse the synergistic effect of Endostatin and Etoposide to some extent”.

B1: PEG-Endostatin: natural human endostatin modified with 20 kDa mPEG-ALD at the N-terminal α-amino group (conjugate)
chain: MHSHRDFQPVLHLVALNSPLSGGMRGIRGADFQCFQQARAVGLAGTFRAFLSSRLQDLYSIVRRADRAAVPIVNLKDELLFPSWEALFSGSEGPLKPGARIFSFDGKDVLRHPTWPQKSVWHGSDPNGRRLTESYCETWRTEAPSATGQASSLLGGRLLGQSAASCHHAYIVLCIENSFMTASK
Turning to B1, in [1] (Example 15, 1 h), the “Activation of the DNA-PKcs signaling pathway by Etoposide (p-DNA-PKcs (S2056), p-AKT (S473))” value is reported as “inhibited the activation of the DNA-PKcs signaling pathway by Etoposide”.

B2: ZBP-Endostatin: endostatin variant obtained by adding 9 additional amino acids (MGGSHHHHH) to the N-terminus of natural human endostatin, SEQ ID NO: 3 (protein)
chain: MGGSHHHHHHSHRDFQPVLHLVALNSPLSGGMRGIRGADFQCFQQARAVGLAGTFRAFLSSRLQDLYSIVRRADRAAVPIVNLKDELLFPSWEALFSGSEGPLKPGARIFSFDGKDVLRHPTWPQKSVWHGSDPNGRRLTESYCETWRTEAPSATGQASSLLGGRLLGQSAASCHHAYIVLCIENSFMTASK
modifications: The amino acid sequence of ZBP-Endostatin
On to B2, for which the “Activation of the DNA-PKcs signaling pathway by Etoposide (p-DNA-PKcs (S2056), p-AKT (S473))” value in [1] (Example 15, 1 h) is “inhibited the activation of the DNA-PKcs signaling pathway by Etoposide”.
